Columns and labels:
[1] = cited from earlier work
[2] = versus molecule without SNAC; in words; cited from earlier work
[3] = tested on: study participants; assay: Onset and duration of action of orally administered Cannabis/SNAC composition (Example 2, 200 mg SNAC); assay type: in vivo, human; settings: oral; 200 mg SNAC with Cannabis concentrate (8 mg THC)
Experimental: This study was designed to assess the utility of SNAC in enabling a rapid-acting oral form of Cannabis.
Selection of Participants. Six study participants were recruited to ingest Cannabis compositions and record the onset, duration, and intensity of Cannabis-induced euphoria and/or dysphoria.
(§1) Formulations. The selected Cannabis concentrate is commercially available and was provided to participants in an ethanol solution. The concentrate contains 8 mg THC per dose. It was selected because it contains a high percentage of THC, which provides a noticeable effect on user-reported “euphoria”.
(§2) Methods. For the Control experiment, each participant mixed the Cannabis concentrate with 15 ml (one tablespoon) of aqueous ethanol, and immediately swallowed the mixture.
For both the Control experiment and the Test experiment, each participant recorded the time of dose administration, the time of onset of euphoria and/or dysphoria, and the observed level of euphoria and/or dysphoria in fifteen minute intervals for five hours following administration of the Cannabis dose. Euphoria and dysphoria were reported using a scale value, in a range from 1-10.

[4] = tested on: study participants; assay: Onset and duration of action of orally administered Cannabis/SNAC composition at a low SNAC dose (Example 3, 100 mg SNAC); assay type: in vivo, human; settings: oral; 100 mg SNAC with Cannabis concentrate (8 mg THC)
Experimental: This study was designed to assess the utility of SNAC in enabling a rapid-acting oral form of Cannabis at a low dose.
Selection of Participants. Three study participants were recruited to ingest Cannabis compositions and record the onset, duration, and intensity of Cannabis-induced euphoria and/or dysphoria.
as §1, §2
For both the Control experiment and the Test experiment, each participant recorded the time of dose administration, the time of onset of euphoria and/or dysphoria, and the observed level of euphoria and/or dysphoria in fifteen minute intervals for five hours following administration of the Cannabis dose. Euphoria and dysphoria were reported using a scale value, in a range from 1-5.

## CCCCCc1cc(O)c2c(c1)OC(C)(C)[C@@H]1CCC(C)=C[C@@H]21 [THC, delta-9-tetrahydrocannabinol]
[1]; after oral administration
  appetite stimulant effect may continue after administration: ≥ 24 h
  duration of action for psychoactive effects: 4 to 6 h
  peak effect (time): 2 to 4 h
[1]; oral, first pass hepatic metabolism and poor aqueous solubility
  administered dose that reaches the systemic circulation: 10-20%

## GLP-1: GLP-1, water-soluble molecule with SNAC-improved absorption
[2]
  absorption when co-administered with an N-acylated fatty amino acid (e.g., SNAC): improved absorption

## heparin
[2]
  absorption when co-administered with an N-acylated fatty amino acid (e.g., SNAC): improved absorption

## sodium N-[8-(2-hydroxybenzoyl) amino] caprylate [SNAC]
[3]
  effect of the absorption enhancer on the duration of action of Cannabis: no effect on the duration of action
[4]
  effect of the absorption enhancer on the duration of action of Cannabis: no effect on the duration of action

## peptide yy: peptide yy, water-soluble molecule with SNAC-improved absorption
[2]
  absorption when co-administered with an N-acylated fatty amino acid (e.g., SNAC): improved absorption

## MT-II
[2]
  absorption when co-administered with an N-acylated fatty amino acid (e.g., SNAC): improved absorption

## rhGH: recombinant human growth hormone
[2]
  absorption when co-administered with an N-acylated fatty amino acid (e.g., SNAC): improved absorption

## calcitonin: calcitonin, water-soluble molecule with SNAC-improved absorption
[2]
  absorption when co-administered with an N-acylated fatty amino acid (e.g., SNAC): improved absorption

## CCCCCN(C)CCC(O)(P(=O)(O)O)P(=O)(O)O [ibandronate]
[2]
  absorption when co-administered with an N-acylated fatty amino acid (e.g., SNAC): improved absorption

## PTH 1-34: parathyroid hormone 1-34
[2]
  absorption when co-administered with an N-acylated fatty amino acid (e.g., SNAC): improved absorption

## vitamin B12
[2]
  absorption when co-administered with an N-acylated fatty amino acid (e.g., SNAC): improved absorption

Source: US11129897B2, “Fast-acting plant-based medicinal compounds and nutritional supplements” (RECEPTOR HOLDINGS, INC., priority 2016, dated 2021)
